Laboratory results reported in article PMC4310727 (Journal of enzyme inhibition and medicinal chemistry, 2012).

Target: T1, Glutaredoxin-1 (GRX-1) (Homo sapiens, UniProt P35754)
T1 sequence (P35754 2-106): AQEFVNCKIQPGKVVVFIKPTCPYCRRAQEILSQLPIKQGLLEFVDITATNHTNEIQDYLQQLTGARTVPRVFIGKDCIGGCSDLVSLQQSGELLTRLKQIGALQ
Test: time-dependent inactivation kinetics
Type: biochemical
Conditions: read-out: Ki

KI (inactivation): 91.3 µM
Compound: CC(=O)N[C@@H](CSC(=S)Nc1ccc(NC(=S)SC[C@H](NC(C)=O)C(=O)O)cc1)C(=O)O [2-AAPA, 2-acetylamino-3-[4-(2-acetylamino-2-carboxyethyl-sulfanylthiocarbonylamino)phenylthiocarbamoylsulfanyl]propionic acid]
